Activity calls are given as the source filed them.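 Rule for the calls: active = GFP ratio to DMSO above 1.5 or below 0.66; inactive = the rest.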
How the values were obtained:
Experiment in all cases: TOR pathway GFP reporter clone modulation in yeast – S. cerevisiae, GFP-tagged clone panel, flow cytometry (AID 504473);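 note: median GFP fluorescence of the cells measured by high-throughput flow cytometry; test concentration not given here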
YIL043C = settings: S. cerevisiae GFP-tagged strains, 3 h
YPL265W = settings: S. cerevisiae GFP-tagged strains, 3 h
YHR087W = settings: S. cerevisiae GFP-tagged strains, 3 h
YCR005C = settings: S. cerevisiae GFP-tagged strains, 3 h
YIL052C = settings: S. cerevisiae GFP-tagged strains, 3 h
YKL086W = settings: S. cerevisiae GFP-tagged strains, 3 h
YNL112W = settings: S. cerevisiae GFP-tagged strains, 3 h
YML063W = settings: S. cerevisiae GFP-tagged strains, 3 h
YKR093W = settings: S. cerevisiae GFP-tagged strains, 3 h
YKL103C = settings: S. cerevisiae GFP-tagged strains, 3 h
YGR121C = settings: S. cerevisiae GFP-tagged strains, 3 h
YEL071W = settings: S. cerevisiae GFP-tagged strains, 3 h
YKR039W = settings: S. cerevisiae GFP-tagged strains, 3 h
YJL144W = settings: S. cerevisiae GFP-tagged strains, 3 h
YHL021C = settings: S. cerevisiae GFP-tagged strains, 3 h
YMR251W-A = settings: S. cerevisiae GFP-tagged strains, 3 h
YLR237W = settings: S. cerevisiae GFP-tagged strains, 3 h
YOR063W = settings: S. cerevisiae GFP-tagged strains, 3 h
YFR031C-A = settings: S. cerevisiae GFP-tagged strains, 3 h
YPL131W = settings: S. cerevisiae GFP-tagged strains, 3 h
[1] = target: General amino acid permease AGP1 (Saccharomyces cerevisiae S288c) (UniProt P25376); settings: S. cerevisiae GFP-tagged strains, 3 h, YCL025C
Chain of General amino acid permease AGP1 (Saccharomyces cerevisiae S288c) (P25376 whole entry, looked up): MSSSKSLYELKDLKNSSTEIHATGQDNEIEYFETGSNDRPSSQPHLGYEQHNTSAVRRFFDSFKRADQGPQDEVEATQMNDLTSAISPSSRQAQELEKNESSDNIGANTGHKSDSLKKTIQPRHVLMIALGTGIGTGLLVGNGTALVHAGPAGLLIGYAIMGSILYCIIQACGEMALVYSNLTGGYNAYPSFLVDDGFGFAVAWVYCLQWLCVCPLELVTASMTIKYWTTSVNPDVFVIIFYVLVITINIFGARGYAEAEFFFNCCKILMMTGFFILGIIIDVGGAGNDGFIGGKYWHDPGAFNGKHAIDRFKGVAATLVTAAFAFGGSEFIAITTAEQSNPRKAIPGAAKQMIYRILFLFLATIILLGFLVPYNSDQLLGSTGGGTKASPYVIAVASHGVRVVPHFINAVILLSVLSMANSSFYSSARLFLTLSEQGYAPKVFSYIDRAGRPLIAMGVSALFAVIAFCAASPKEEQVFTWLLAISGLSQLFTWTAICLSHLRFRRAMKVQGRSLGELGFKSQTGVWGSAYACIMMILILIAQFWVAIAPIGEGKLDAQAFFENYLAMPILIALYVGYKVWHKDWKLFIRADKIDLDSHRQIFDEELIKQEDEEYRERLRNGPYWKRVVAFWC

YAL061W = settings: S. cerevisiae GFP-tagged strains, 3 h
YER081W = settings: S. cerevisiae GFP-tagged strains, 3 h
YDL130W = settings: S. cerevisiae GFP-tagged strains, 3 h
YOR371C = settings: S. cerevisiae GFP-tagged strains, 3 h
YBR208C = settings: S. cerevisiae GFP-tagged strains, 3 h
YLR142W = settings: S. cerevisiae GFP-tagged strains, 3 h
YKL119C = settings: S. cerevisiae GFP-tagged strains, 3 h
YAL060W = settings: S. cerevisiae GFP-tagged strains, 3 h
YJR148W = settings: S. cerevisiae GFP-tagged strains, 3 h
YEL007W = settings: S. cerevisiae GFP-tagged strains, 3 h
YNR001C = settings: S. cerevisiae GFP-tagged strains, 3 h
YDR453C = settings: S. cerevisiae GFP-tagged strains, 3 h
YDR399W = settings: S. cerevisiae GFP-tagged strains, 3 h
YGL147C = settings: S. cerevisiae GFP-tagged strains, 3 h
YLL026W = settings: S. cerevisiae GFP-tagged strains, 3 h
YDR382W = settings: S. cerevisiae GFP-tagged strains, 3 h
YLR109W = settings: S. cerevisiae GFP-tagged strains, 3 h
YNL015W = settings: S. cerevisiae GFP-tagged strains, 3 h
YOL052C-A = settings: S. cerevisiae GFP-tagged strains, 3 h
YEL063C = settings: S. cerevisiae GFP-tagged strains, 3 h
YGR088W = settings: S. cerevisiae GFP-tagged strains, 3 h
YBR072W = settings: S. cerevisiae GFP-tagged strains, 3 h
YLR287C-A = settings: S. cerevisiae GFP-tagged strains, 3 h
YDL205C = settings: S. cerevisiae GFP-tagged strains, 3 h
YHR018C = settings: S. cerevisiae GFP-tagged strains, 3 h
YCL064C = settings: S. cerevisiae GFP-tagged strains, 3 h
YHR141C = settings: S. cerevisiae GFP-tagged strains, 3 h
YIL051C = settings: S. cerevisiae GFP-tagged strains, 3 h
YIL069C = settings: S. cerevisiae GFP-tagged strains, 3 h
YGR034W = settings: S. cerevisiae GFP-tagged strains, 3 h
YEL060C = settings: S. cerevisiae GFP-tagged strains, 3 h
YML026C = settings: S. cerevisiae GFP-tagged strains, 3 h
YGL036W = settings: S. cerevisiae GFP-tagged strains, 3 h
YML034W = settings: S. cerevisiae GFP-tagged strains, 3 h
YMR307W = settings: S. cerevisiae GFP-tagged strains, 3 h
YOR173W = settings: S. cerevisiae GFP-tagged strains, 3 h
YPR132W = settings: S. cerevisiae GFP-tagged strains, 3 h
YNL142W = settings: S. cerevisiae GFP-tagged strains, 3 h
YOR375C = settings: S. cerevisiae GFP-tagged strains, 3 h
YLR367W = settings: S. cerevisiae GFP-tagged strains, 3 h
YPL220W = settings: S. cerevisiae GFP-tagged strains, 3 h
YPL111W = settings: S. cerevisiae GFP-tagged strains, 3 h
YLR058C = settings: S. cerevisiae GFP-tagged strains, 3 h
YHR144C = settings: S. cerevisiae GFP-tagged strains, 3 h
YPL150W = settings: S. cerevisiae GFP-tagged strains, 3 h
YBR139W = settings: S. cerevisiae GFP-tagged strains, 3 h
YGL062W = settings: S. cerevisiae GFP-tagged strains, 3 h
YDR070C = settings: S. cerevisiae GFP-tagged strains, 3 h
YPR184W = settings: S. cerevisiae GFP-tagged strains, 3 h
YFR053C = settings: S. cerevisiae GFP-tagged strains, 3 h
YER117W = settings: S. cerevisiae GFP-tagged strains, 3 h
YOR182C = settings: S. cerevisiae GFP-tagged strains, 3 h
YOR038C = settings: S. cerevisiae GFP-tagged strains, 3 h
YLL039C = settings: S. cerevisiae GFP-tagged strains, 3 h
YLR185W = settings: S. cerevisiae GFP-tagged strains, 3 h
YBL087C = settings: S. cerevisiae GFP-tagged strains, 3 h
YPR145W = settings: S. cerevisiae GFP-tagged strains, 3 h
YNL068C = settings: S. cerevisiae GFP-tagged strains, 3 h
YMR105C = settings: S. cerevisiae GFP-tagged strains, 3 h
YML128C = settings: S. cerevisiae GFP-tagged strains, 3 h
YCR002C = settings: S. cerevisiae GFP-tagged strains, 3 h
YKR094C = settings: S. cerevisiae GFP-tagged strains, 3 h
YGR019W = settings: S. cerevisiae GFP-tagged strains, 3 h
YIL066C = settings: S. cerevisiae GFP-tagged strains, 3 h
YHR203C = settings: S. cerevisiae GFP-tagged strains, 3 h
YJL056C = settings: S. cerevisiae GFP-tagged strains, 3 h
YOR136W = settings: S. cerevisiae GFP-tagged strains, 3 h
YGL135W = settings: S. cerevisiae GFP-tagged strains, 3 h
YML004C = settings: S. cerevisiae GFP-tagged strains, 3 h
YER156C = settings: S. cerevisiae GFP-tagged strains, 3 h
YMR120C = settings: S. cerevisiae GFP-tagged strains, 3 h
YBR248C = settings: S. cerevisiae GFP-tagged strains, 3 h
YNL214W = settings: S. cerevisiae GFP-tagged strains, 3 h
YER151C = settings: S. cerevisiae GFP-tagged strains, 3 h
YDL204W = settings: S. cerevisiae GFP-tagged strains, 3 h

Measured: GFP ratio to DMSO

CNc1nc(N)c([N+](=O)[O-])c(Nc2cccc(Cl)c2)n1
inactive: YIL043C 1 | YHR087W 0.926 | YIL052C 0.864 | YKL086W 0.896 | YNL112W 1.07 | YML063W 1.04 | YKL103C 1.21 | YGR121C 1.02 | YKR039W 1.35 | YJL144W 0.983 | YHL021C 1.11 | YMR251W-A 1.01 | YLR237W 0.77 | YOR063W 1.1 | YFR031C-A 1.02 | YPL131W 1.09 | [1] 0.961 | YAL061W 0.887 | YER081W 1.21 | YDL130W 1.06 | YOR371C 0.826 | YBR208C 1.16 | YLR142W 0.835 | YKL119C 0.951 | YAL060W 0.91 | YEL007W 0.89 | YNR001C 1.17 | YDR453C 1.02 | YDR399W 0.977 | YGL147C 0.988 | YLL026W 1.07 | YDR382W 1.1 | YLR109W 1.3 | YNL015W 0.947 | YOL052C-A 1.17 | YEL063C 1.09 | YGR088W 1.07 | YBR072W 0.849 | YLR287C-A 1.04 | YDL205C 0.943 | YHR018C 0.948 | YCL064C 0.902 | YHR141C 1.04 | YIL051C 0.981 | YIL069C 1.1 | YGR034W 1.01 | YEL060C 0.826 | YML026C 0.93 | YGL036W 0.781 | YML034W 0.842 | YMR307W 0.996 | YOR173W 0.891 | YPR132W 1.13 | YNL142W 1.32 | YOR375C 1.17 | YLR367W 1.01 | YPL220W 1.07 | YPL111W 1.25 | YLR058C 0.859 | YHR144C 0.837 | YPL150W 0.863 | YBR139W 0.935 | YDR070C 1.14 | YPR184W 0.958 | YFR053C 0.888 | YER117W 0.883 | YOR182C 1.02 | YOR038C 0.974 | YLL039C 0.725 | YLR185W 1.04 | YBL087C 0.955 | YPR145W 1.32 | YNL068C 0.946 | YMR105C 1.17 | YML128C 0.923 | YCR002C 0.916 | YKR094C 1.06 | YGR019W 1.02 | YIL066C 0.868 | YHR203C 1.04 | YJL056C 0.808 | YOR136W 1.19 | YGL135W 1.07 | YML004C 0.875 | YER156C 1.01 | YBR248C 1.01 | YNL214W 0.938 | YER151C 0.926 | YDL204W 0.851
active: YPL265W 1.62 | YCR005C 2.27 | YKR093W 1.61 | YEL071W 2.01 | YJR148W 1.71 | YGL062W 1.65 | YMR120C 0.553

— PubChem BioAssay AID504473 (NMMLSC, 2011)
